In assay [1] the test system is MDA-MB-231. Kind of assay: Antiproliferative activity against human MDA-MB-231 cells assessed as cell growth inhibition incubated for 72 hrs by sulforhodamine B assay. The assay is classed as functional, cell-based. To be noted: MDA-MB-231, 72 h.
In assay [2] the test system is A549. Kind of assay: Antiproliferative activity against human A549 cells assessed as cell growth inhibition incubated for 72 hrs by sulforhodamine B assay. The conditions noted are these: A549, 72 h. The assay is classed as functional, cell-based. On the technique in general: Sulforhodamine B stains cellular protein and so reports cell mass.
For assay [3], the system named is MCF7. Kind of assay: Antiproliferative activity against human MCF7 cells assessed as cell growth inhibition incubated for 72 hrs by sulforhodamine B assay. The assay is classed as functional, cell-based. The conditions noted are these: MCF7, 72 h.
The nature of assay [4]: Antiproliferative activity against human KB-VIN cells assessed as cell growth inhibition incubated for 72 hrs by sulforhodamine B assay. The assay is classed as functional, cell-based. The conditions noted are these: KBVIN.
In assay [5] the test system is KB. Kind of assay: Antiproliferative activity against human KB cells assessed as cell growth inhibition incubated for 72 hrs by sulforhodamine B assay. The assay is classed as functional, cell-based.
The test system of assay [6] is MDA-MB-231. Kind of assay: Induction of cell cycle arrest in human MDA-MB-231 cells assessed as accumulation of cells at G2/M phase at IC50 incubated for 24 hrs by propidium iodide staining based flow cytometry. The assay is classed as functional.
Assay [7] has as its system MDA-MB-231. Kind of assay: Induction of cell cycle arrest in human MDA-MB-231 cells assessed as accumulation of cells at G2/M phase at IC50 x 8 incubated for 24 hrs by propidium iodide staining based flow cytometry. Type of assay: functional.
The test system of assay [8] is MDA-MB-231. Kind of assay: Induction of cell cycle arrest in human MDA-MB-231 cells assessed as accumulation of cells at sub-G1 phase at 8 x IC50 incubated for 24 hrs by propidium iodide staining based flow cytometry. Type of assay: functional. On the technique in general: Flow cytometry measures light scatter and fluorescence of single cells or particles in a stream.

For assay [9], the system named is MDA-MB-231. Kind of assay: Induction of nuclear fragmentation in human MDA-MB-231 cells at 8 x IC50 incubated for 24 hrs by propidium iodide staining based flow cytometry. Type of assay: functional, cell-based.

The source made the active and inactive calls. The rule behind the calls is not given here. Bounds are passed on as bounds.

As for `C[C@H]1[C@H](O)C=C(Br)C2=CC(=O)CC[C@@]21C`, the IC50 (as a rule, the concentration needed to halve the response being measured) in assay [1] came out at 32 µM; in assay [2], 35 µM; in assay [3] it was 36 µM; in [4], 37 µM; in assay [5], 29 µM.
Consider `CC(=O)C1=C(O)C=C2C(Br)=CC(=O)[C@H](C)[C@@]2(C)C1`, for which the IC50 was 5.3 µM in assay [1]; 7.9 µM in [2]; 6.9 µM in [3]; 8 µM in assay [4]; 5 µM in [5]. The outcome in assay [6] was Active.
With `CC(=O)C1=C(O)C=C2C=CC(=O)[C@H](C)[C@@]2(C)C1`, the IC50 is 31 µM in assay [1]; 29 µM in [2]; 16 µM in assay [3]; 26 µM in assay [4]; 9.5 µM in assay [5].
Consider `C[C@H]1[C@H](O)C=CC2=CC(=O)CC[C@@]21C`, for which the IC50 in [1] is > 40 µM; in assay [2] it was > 40 µM; in assay [3], > 40 µM; in [4], > 40 µM; in assay [5] it was 32 µM.
Take `CC(=O)C1=C(O)C=C2C(Br)=C[C@H](O)[C@H](C)[C@@]2(C)C1`: the outcome in assay [7] and in [6] was Active. The IC50 in [1] turned out to be 5.2 µM; in assay [2], 19 µM; in [3], 13 µM; in [4], 18 µM; in assay [5], 15 µM.
With `CC(=O)C1=C(O)C=C2C=C[C@H](O)[C@H](C)[C@@]2(C)C1`, the IC50 in assay [1], in [2], in assay [3], in assay [4] and in [5] was > 40 µM each time.
Turning to `C[C@H]1C(=O)C=CC2=CC(=O)CC[C@@]21C`, the IC50 in [1], in assay [2], in assay [3], in assay [4] and in [5] was > 40 µM in each case.
For the molecule `C[C@H]1C(=O)C=C(Br)C2=CC(=O)CC[C@@]21C`, the half-inhibitory concentration (IC50) in assay [1] stood at 6.4 µM; in [2], 25 µM; in assay [3], 17 µM; in [4] it was 19 µM; in assay [5], 18 µM. In addition, the result in [8], in assay [9] and in [6] was Active.
Turning to `CC(=O)O[C@H]1C(=O)[C@@]2(C)[C@H]([C@H](OC(=O)c3ccccc3)[C@]3(O)C[C@H](OC(=O)[C@H](O)[C@@H](NC(=O)c4ccccc4)c4ccccc4)C(C)=C1C3(C)C)[C@]1(OC(C)=O)CO[C@@H]1C[C@@H]2O` [PACLITAXEL], the IC50 stood at 0.0054 µM in assay [2], 0.011 µM in assay [3] and 2.4 µM in assay [4].
